The record followed here is patent US11572590B2, “Methods for evaluating tumor cell spheroids using 3D microfluidic cell culture device” (Dana-Farber Cancer Institute, Inc., priority 2017, dated 2023).

Read-outs that look alike come from different tables or passages of the source.

Usually inhibition stands for the share of the control response that was lost under treatment.

For assay [1], the target named is off-target kinases (Homo sapiens, UniProt P06241). Nature of the assay: SelectScreen Kinase Profiling, single point inhibition and IC50 for off-target kinases. The format is biochemical. More on the design: other: FYN A; 1000 μM. As to conditions: FYN A, LanthaScreen Binding. The method, then: (§1) Biochemical single point inhibition and IC50 concentrations for TBK1, IKKε (IKBKE), and off-target kinases were determined at ThermoFisher Scientific using SelectScreen Kinase Profiling Services (Madison, Wis., USA) (Tables S4A and S4B-1-7). To determine cellular potency, the human colorectal cancer carcinoma cell line HCT116 (ATCC, Manassas, Va.) was maintained in T175 flasks in complete RPMI medium; RPMI 1640 supplemented with 10% FBS, 1× Penicillin-Streptomycin solution and 1×MEM (non-essential amino acids). HCT116 cells were grown to 90-95% confluency in T175 flasks containing complete RPMI medium and transfected in bulk using Lipofectamine 2000 (Invitrogen, Carlsbad, Calif.) with 70 μg of ISG54-luciferase reporter plasmid (Elim Biopharmaceuticals Inc., Hayward, Calif.). The reporter plasmid contains a luciferase gene expression cassette under the transcriptional regulation of the promoter of the human interferon stimulated gene 54 (ISG54). […] The assay plates were incubated for 5 hours at 37° C., followed by addition of One-Glo luciferase firefly reagent (Promega, Madison, Wis.) at 1:1 volume/well and luminescence was measured in an EnVision Multilabel Plate Reader (PerkinElmer, Santa Clara, Calif.). The EC50 values were calculated from the fit of the dose-response curves to a four-parameter equation. […]

The target in assay [2] is T1, off-target kinases (Homo sapiens, UniProt O43318).
T1 sequence (O43318 1-606): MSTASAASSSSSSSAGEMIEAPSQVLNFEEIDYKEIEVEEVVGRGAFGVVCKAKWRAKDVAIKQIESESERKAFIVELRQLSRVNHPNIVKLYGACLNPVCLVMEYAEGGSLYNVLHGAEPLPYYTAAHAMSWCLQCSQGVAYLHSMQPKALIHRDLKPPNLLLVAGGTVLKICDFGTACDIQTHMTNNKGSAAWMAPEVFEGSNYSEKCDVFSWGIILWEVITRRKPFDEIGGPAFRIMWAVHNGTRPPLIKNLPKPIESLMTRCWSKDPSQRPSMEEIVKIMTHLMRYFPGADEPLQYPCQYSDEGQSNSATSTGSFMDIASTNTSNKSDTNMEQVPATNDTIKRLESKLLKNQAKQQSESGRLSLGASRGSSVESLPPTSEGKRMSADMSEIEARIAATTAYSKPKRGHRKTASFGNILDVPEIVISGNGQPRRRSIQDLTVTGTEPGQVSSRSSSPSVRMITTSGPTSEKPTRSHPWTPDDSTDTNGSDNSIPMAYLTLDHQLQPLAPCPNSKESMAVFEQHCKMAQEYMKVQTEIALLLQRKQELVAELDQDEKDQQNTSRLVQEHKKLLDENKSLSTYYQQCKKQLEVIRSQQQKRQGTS
Described as above. The format is biochemical. More on the design: other: MAP3K7/MAP3K7IP1 (TAK1-TAB1); 1000 μM; fused on or other part: TAB1 (MAP3K7IP1, Q15750), either fused to TAK1 or present as a separate partner chain. As to conditions: MAP3K7/MAP3K7IP1 (TAK1-TAB1); LanthaScreen Binding; 1000 μM. The method, then: as §1

Chain of off-target kinases (Homo sapiens, UniProt P06241) (P06241 whole entry): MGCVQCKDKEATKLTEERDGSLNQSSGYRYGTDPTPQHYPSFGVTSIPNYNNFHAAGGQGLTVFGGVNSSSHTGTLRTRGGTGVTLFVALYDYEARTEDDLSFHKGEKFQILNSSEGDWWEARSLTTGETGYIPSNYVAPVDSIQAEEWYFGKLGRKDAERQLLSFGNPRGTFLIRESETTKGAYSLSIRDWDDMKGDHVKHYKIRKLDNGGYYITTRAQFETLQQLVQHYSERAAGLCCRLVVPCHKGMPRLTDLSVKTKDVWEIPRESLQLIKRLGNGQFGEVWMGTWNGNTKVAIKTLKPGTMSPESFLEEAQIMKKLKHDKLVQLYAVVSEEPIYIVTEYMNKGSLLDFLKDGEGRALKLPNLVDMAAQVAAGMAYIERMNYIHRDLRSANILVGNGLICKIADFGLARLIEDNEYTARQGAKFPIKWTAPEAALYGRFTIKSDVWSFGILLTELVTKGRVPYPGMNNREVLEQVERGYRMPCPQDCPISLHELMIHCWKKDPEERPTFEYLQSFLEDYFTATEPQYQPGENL

Turning to `N#Cc1cc(-c2ncnc(Nc3ccc(N4CCN(C5COC5)CC4)cc3)n2)ccc1OC1CCOCC1` [Compound 1, 5-(4-((4-(4-(oxetan-3-yl)piperazin-1-yl)phenyl)amino)-1,3,5-triazin-2-yl)-2-((tetrahydro-2H-pyran-4-yl)oxy)benzonitrile], the inhibition was 16% at off-target kinases [1] (read-out: % Inhibition 1) and 21% at off-target kinases [1] (read-out: % Inhibition 2). Moreover, the “% Inhibition 1” value at off-target kinases [2] came to 22%.
